In patent publication US4536346A, “Aralkanamidophenyl compounds” (American Cyanamid Company, priority 1983, dated 1985):

Target: T1, fatty acyl CoA: cholesterol acyl transferase (ACAT) (Rattus norvegicus, UniProt O70536)
T1 construct: The supernatant, containing the microsomal fraction, served as the source of the cholesterol-esterifying enzyme; from tissue; host or cells: rat adrenals (1,000 x g supernatant containing the microsomal fraction)
T1 sequence (O70536 1-545): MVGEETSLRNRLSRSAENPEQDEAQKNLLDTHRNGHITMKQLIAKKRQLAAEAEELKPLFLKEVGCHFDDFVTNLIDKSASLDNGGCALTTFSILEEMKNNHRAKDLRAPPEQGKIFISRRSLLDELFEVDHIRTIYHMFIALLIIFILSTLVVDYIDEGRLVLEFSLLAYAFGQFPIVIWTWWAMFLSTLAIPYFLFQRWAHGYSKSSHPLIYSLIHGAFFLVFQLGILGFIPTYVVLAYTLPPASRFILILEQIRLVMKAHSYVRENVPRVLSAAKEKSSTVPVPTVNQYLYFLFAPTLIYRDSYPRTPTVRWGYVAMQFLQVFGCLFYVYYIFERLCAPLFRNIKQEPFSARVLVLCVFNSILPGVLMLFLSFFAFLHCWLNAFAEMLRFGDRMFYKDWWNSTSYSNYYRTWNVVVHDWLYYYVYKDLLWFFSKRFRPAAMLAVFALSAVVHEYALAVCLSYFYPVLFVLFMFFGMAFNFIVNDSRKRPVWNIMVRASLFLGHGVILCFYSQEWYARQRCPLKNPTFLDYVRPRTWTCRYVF
Assay: Inhibition of enzymatic esterification of cholesterol (ACAT) in rat adrenal supernatant containing the microsomal fraction
Assay type: biochemical
Conditions: final concentration of test compound 5.2 μg./ml., percent inhibition of the ACAT enzyme compared to control values
Protocol: The compounds of the present invention were tested for their ability to inhibit the enzymatic esterification of cholesterol according to the following procedure:
Rat adrenals were homogenized in 0.2M monobasic potassium phosphate buffer, pH 7.4, and centrifuged at 1,000 times gravity for 15 minutes at 5° C. The supernatant, containing the microsomal fraction, served as the source of the cholesterol-esterifying enzyme, fatty acyl CoA: cholesterol acyl transferase (ACAT). A mixture comprising 50 parts of adrenal supernatant, 10 parts of albumin (BSA) (50 mg./ml.), […], 3 parts of test compound, and 500 parts of buffer was pre-incubated at 37° C. for 10 minutes. After treatment with 20 parts of oleoyl CoA (^14 C-0.4 μCi), the mixture was incubated at 37° C. for 10 minutes. A control mixture, omitting the test compound, was prepared and treated in the same manner. The lipids from the incubation mixture were extracted into an organic solvent and separated by thin-layer chromatography. The cholesterol ester fraction was counted in a scintillation counter. This procedure is a modification of that described by Hashimoto, et al., Life Scie., 12 (Part II), 1-12 (1973).
The results of this test on representative compounds of this invention appear in Table I. The final concentration of the test compound was 5.2 μg./ml., and the effectiveness of the compound is expressed as percent inhibition of the ACAT enzyme compared to control values.

| inhibition at 5.2 µg/mL [%] | Compound |
| --- | --- |
| 95 | CCOC(=O)c1ccc(NC(=O)CC(c2ccc(C)cc2)c2ccc(C)cc2)cc1 [Ethyl 4'-[3,3-bis(4-methylphenyl)propionamido]benzoate] |
| 95 | CC(=O)c1ccc(NC(=O)CC(c2ccc(Cl)cc2)c2ccc(Cl)cc2)cc1 [N--(4-Acetylphenyl)-3,3-bis(p-chlorophenyl)propionamide] |
| 96 | N#Cc1ccc(NC(=O)CC(c2ccc(Cl)cc2)c2ccc(Cl)cc2)cc1 [N--(4-Cyanophenyl)-3,3-bis(p-chlorophenyl)propionamide] |
| 67 | O=C(CC(c1ccc(Cl)cc1)c1ccc(Cl)cc1)Nc1ccc(F)cc1 [N--(4-Fluorophenyl)-3,3-bis(p-chlorophenyl)propionamide] |
| 36 | Cc1ccc(NC(=O)CC(c2ccc(Cl)cc2)c2ccc(Cl)cc2)cc1 [N--(4-Tolyl)-3,3-bis(p-chlorophenyl)propionamide] |
| 35 | O=C(CC(c1ccc(Cl)cc1)c1ccc(Cl)cc1)Nc1ccc(C(F)(F)F)cc1 [N--(4-Trifluoromethylphenyl)-3,3-bis(p-chlorophenyl)propionamide] |
| 79 | COc1ccc(C(CC(=O)Nc2ccc(Br)cc2)c2ccc(OC)cc2)cc1 [N--(p-Bromophenyl)-3,3-bis(4-methoxyphenyl)propionamide] |
| 91 | COc1ccc(C(CC(=O)Nc2ccc(Cl)cc2)c2ccc(OC)cc2)cc1 [N--(p-Chlorophenyl)-3,3-bis(4-methoxyphenyl)propionamide] |
| 89 | Cc1ccc(C(CC(=O)Nc2ccc(Cl)cc2)c2ccc(C)cc2)cc1 [N--(p-Chlorophenyl)-3,3-bis(p-tolyl)propionamide] |
| 94 | COc1ccc(C(CC(=O)Nc2ccc(C#N)cc2)c2ccc(OC)cc2)cc1 [N--(p-Cyanophenyl)-3,3-bis(4-methoxyphenyl)propionamide] |
| 90 | Cc1ccc(C(CC(=O)Nc2ccc(C#N)cc2)c2ccc(C)cc2)cc1 [N--(p-Cyanophenyl)-3,3-bis(p-tolyl)propionamide] |
| 92 | COc1ccc(C(CC(=O)Nc2ccc(F)cc2)c2ccc(OC)cc2)cc1 [N--(p-Fluorophenyl)-3,3-bis(4-methoxyphenyl)propionamide] |
| 92 | Cc1ccc(C(CC(=O)Nc2ccc(F)cc2)c2ccc(C)cc2)cc1 [N--(p-Fluorophenyl)-3,3-bis(p-tolyl)propionamide] |
| 58 | COc1ccc(NC(=O)CC(c2ccc(OC)cc2)c2ccc(OC)cc2)cc1 [N--(p-Methoxyphenyl)-3,3-bis(4-methoxyphenyl)propionamide] |
| 94 | COc1ccc(C(CC(=O)Nc2ccc([N+](=O)[O-])cc2)c2ccc(OC)cc2)cc1 [N--(p-Nitrophenyl)-3,3-bis(4-methoxyphenyl)propionamide] |
| 97 | COc1ccc(C(CC(=O)Nc2ccc(C)cc2)c2ccc(OC)cc2)cc1 [N--(p-Tolyl)-3,3-bis(4-methoxyphenyl)propionamide] |
| 66 | Cc1ccc(NC(=O)CC(c2ccc(C)cc2)c2ccc(C)cc2)cc1 [N--(p-Tolyl)-3,3-bis(p-tolyl)propionamide] |
| 92 | COc1ccc(C(CC(=O)Nc2ccc(C(F)(F)F)cc2)c2ccc(OC)cc2)cc1 [N--(p-Trifluoromethylphenyl)-3,3-bis(4-methoxyphenyl)propionamide] |
| 94 | Cc1ccc(C(CC(=O)Nc2ccc(C(F)(F)F)cc2)c2ccc(C)cc2)cc1 [N--(p-Trifluoromethylphenyl)-3,3-bis(p-tolyl)propionamide] |
| 91 | COc1ccc(C(CC(=O)Nc2ccccc2)c2ccc(OC)cc2)cc1 [N--Phenyl-3,3-bis(4-methoxyphenyl)propionamide] |
| 50 | O=C(CC(c1ccc(Cl)cc1)c1ccc(Cl)cc1)Nc1ccccc1 [N--Phenyl-3,3-bis(p-chlorophenyl)propionamide] |
| 82 | Cc1ccc(C(CC(=O)Nc2ccccc2)c2ccc(C)cc2)cc1 [N--Phenyl-3,3-bis(p-tolyl)propionamide] |
| 40 | CCOC(=O)c1ccc(NC(=O)C=C(c2ccccc2)c2ccccc2)cc1 [p-(3,3-Diphenylacrylamido)benzoic acid, ethyl ester] |
